Reference: PubChem BioAssay (NCI)
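Values below derive from 48-hour exposures of cells grown in 96-well plates, with endpoints linearly interpolated between the two concentrations bracketing the appropriate inhibition level. At the TGI there is no net growth.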

Experiments:
Experiment in all cases: NCI anticancer screen, dose series, 48 h
[1] = system: UACC-62 melanoma
[2] = system: UO-31 renal
[3] = system: MCF7 breast
[4] = system: HS 578T breast
[5] = system: LOX IMVI melanoma
[6] = system: NCI-H522 lung
[7] = system: SN12C renal
[8] = system: NCI/ADR-RES ovarian
[9] = system: SK-MEL-28 melanoma
[10] = system: NCI-H460 lung
[11] = system: RPMI-8226 leukemia
[12] = system: EKVX NSCLC
[13] = system: HCT-15 colon
[14] = system: HCT-116 colon
[15] = system: HOP-92 NSCLC
[16] = system: MDA-MB-435
[17] = system: SF-268 CNS
[18] = system: DU-145 prostate
[19] = system: MDA-N
[20] = system: M14 melanoma
[21] = system: U251 CNS
[22] = system: ACHN renal
[23] = system: SNB-19 CNS
[24] = system: HOP-62 NSCLC
[25] = system: IGROV1 ovarian
[26] = system: KM12 colon
[27] = system: SK-OV-3 ovarian
[28] = system: MALME-3M melanoma
[29] = system: CAKI-1 renal
[30] = system: NCI-H226 lung
[31] = system: SW-620 colon
[32] = system: PC-3 prostate
[33] = system: A549 NSCLC
[34] = system: SNB-75 CNS
[35] = system: HT29 colon
[36] = system: MDA-MB-231 breast
[37] = system: OVCAR-4 ovarian
[38] = system: TK-10 renal
[39] = system: T-47D breast
[40] = system: SK-MEL-2 melanoma
[41] = system: NCI-H23 lung
[42] = system: OVCAR-5 ovarian
[43] = system: SF-295 CNS
[44] = system: HCC-2998 colon
[45] = system: UACC-257 melanoma
[46] = system: HL-60(TB) leukemia
[47] = system: MOLT-4 leukemia
[48] = system: COLO 205 colon
[49] = system: BT-549 breast
[50] = system: OVCAR-8 ovarian
[51] = system: RXF 393 renal
[52] = system: K-562 leukemia
[53] = system: 786-0 renal
[54] = system: A498 renal
[55] = system: SK-MEL-5 melanoma

Measured: TGI

CC12CCC(C1)C(C)(C)C2OC(=O)c1ccccc1C(=O)O (stereo not given)
> 100 µM: all assays above
